Values of other authors as cited in patent US7026311B2, “Dibenzodiazepine derivatives, their preparation and use” (Abbott GmbH & Co., KG, priority 2002, dated 2006).

Details: S. Cuzzocrea et al., Br. J. Pharmacol. 1997

NC(=O)c1cccc(N)c1 [Example 3-aminobenzamide, 3-aminobenzamide]
effects in a model of circulatory shock: protective effects
